We go through one compound from article PMC11092195, “Selective Detection of Active Extracellular Granzyme A by Using a Novel Fluorescent Immunoprobe with Application to Inflammatory Diseases” (ACS Pharmacology & Translational Science, 2024).

Counter-ions that a name gives are not always drawn.

The target in the assay is T1, hGzmK (human GzmK) (Homo sapiens, UniProt P49863).
T1 construct: commercial, Enzo Life Sciences
T1 sequence (P49863 27-264): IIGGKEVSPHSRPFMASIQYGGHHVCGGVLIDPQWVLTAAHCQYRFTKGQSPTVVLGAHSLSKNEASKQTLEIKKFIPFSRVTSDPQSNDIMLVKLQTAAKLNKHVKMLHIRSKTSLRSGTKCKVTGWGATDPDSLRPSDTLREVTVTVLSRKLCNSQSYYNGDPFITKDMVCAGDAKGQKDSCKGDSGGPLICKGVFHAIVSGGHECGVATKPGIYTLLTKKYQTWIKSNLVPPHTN
As to the kind of experiment: thioester hydrolysis with DTNB, used to normalise enzyme units. The class given is biochemical. The note with it: Tris-HCl pH 8.5, 37 °C.

As to `NCCCC[C@H](NC(=O)OCc1ccccc1)C(=O)SCc1ccccc1` [Nα-CBZ-L-Lysine thiobenzyl ester hydrochloride], the “thioester hydrolysis with DTNB, used to normalise enzyme units” value is recorded as “activity of the different trypsin-like proteases was equated using a common substrate”.
